Results reported in ChEMBL document CHEMBL1201862, “PubChem BioAssay data set” (2004).
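Five compound concentrations were applied to cells in 96-well plates for 48 hours; endpoints were derived by simple linear interpolation of the resulting dose-response curve. GI50 = concentration required for 50% inhibition of growth.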 The source made the active and inactive calls. No stated cut-off is given here; in the data, active = GI50 up to about 1.1 µM and inactive = higher.

Columns and labels:
Experiment in all cases: NCI-60 cell line screen, 48 h
[1] = system: SK-MEL-28
[2] = system: Hs-578T
[3] = system: NCI-H522
[4] = system: U-251
[5] = system: A498
[6] = system: UACC-257
[7] = system: SR
[8] = system: TK-10
[9] = system: NCI/ADR-RES
[10] = system: 786-0
[11] = system: DU-145
[12] = system: SK-OV-3
[13] = system: EKVX
[14] = system: MDA-MB-435
[15] = system: OVCAR-4
[16] = system: SN12C
[17] = system: SF-295
[18] = system: OVCAR-3
[19] = system: M14
[20] = system: MCF7

Measured: GI50

c1ccc(/N=C2\SC(=NNc3ccccc3)S\C2=N/c2ccccc2)cc1
inactive: [1] > 100 µM | [2] 32.8 µM | [3] 15.3 µM | [4] 38.1 µM | [5] > 100 µM | [6] 65.5 µM | [7] > 100 µM | [8] > 100 µM | [9] 40.5 µM | [10] > 100 µM | [11] 62.2 µM | [12] > 100 µM | [13] > 100 µM | [14] 35.6 µM | [15] > 100 µM | [16] 79.3 µM | [17] 25.6 µM

O=C1C=C(c2c(O)ccc3ccccc23)c2ccccc2C1=O
inactive: [1] 9.95 µM | [18] 2.32 µM | [19] 4.69 µM | [3] 1.61 µM | [4] 2.21 µM | [5] 8.51 µM | [6] 2.39 µM | [8] 12.1 µM | [9] 3.15 µM | [10] 2.15 µM | [11] 10.9 µM | [12] 10.7 µM | [13] 3.15 µM | [14] 3.01 µM | [15] 1.92 µM | [16] 2.58 µM | [17] 4.19 µM
active: [20] < 0.01 µM

CC(=O)Nc1ccc(Nc2cc(=O)n(C)c(=O)[nH]2)cc1
inactive: [1] > 100 µM | [2] > 100 µM | [18] > 100 µM | [19] > 100 µM | [3] > 100 µM | [4] > 100 µM | [5] > 100 µM | [6] > 100 µM | [7] > 100 µM | [8] > 100 µM | [9] > 100 µM | [10] > 100 µM | [12] > 100 µM | [13] > 100 µM | [14] > 100 µM | [20] > 100 µM | [15] > 100 µM | [16] > 100 µM | [17] > 100 µM

Oc1ccc2c(c1)OCC(O)(c1ccccc1O)C2 (centres undefined)
inactive: [1] > 100 µM | [2] 97.5 µM | [18] > 100 µM | [19] > 100 µM | [4] > 100 µM | [5] > 100 µM | [6] > 100 µM | [8] > 100 µM | [9] > 100 µM | [10] > 100 µM | [11] > 100 µM | [12] > 100 µM | [13] > 100 µM | [14] > 100 µM | [20] > 100 µM | [15] > 100 µM | [16] > 100 µM | [17] > 100 µM

NC(=O)NC(=O)Nc1ccc(Br)cc1
inactive: [1] 6.14 µM | [2] > 100 µM | [19] 18.5 µM | [3] > 25.9 µM | [4] 11.7 µM | [5] 9.79 µM | [6] > 27.1 µM | [8] > 35.9 µM | [9] > 30.8 µM | [10] 20.5 µM | [11] > 100 µM | [12] > 100 µM | [13] 14.7 µM | [14] 9.57 µM | [20] 5.45 µM | [15] > 24.3 µM | [16] > 67.5 µM | [17] 14.7 µM

COC(=O)/C(=N\Nc1nnc(C)n1N)C(C#N)c1ccccc1 (centres undefined)
inactive: [1] > 100 µM | [2] > 100 µM | [18] > 100 µM | [19] > 74.6 µM | [3] > 100 µM | [4] > 77.4 µM | [6] 40.6 µM | [8] > 100 µM | [9] > 100 µM | [10] > 39.9 µM | [11] > 100 µM | [12] > 100 µM | [13] > 100 µM | [14] 17.3 µM | [15] > 40 µM | [16] > 48.4 µM | [17] > 100 µM

CCc1n[nH]c(=O)n1NC(=O)c1ccccc1C(=O)O
inactive: [1] > 100 µM | [18] > 100 µM | [19] > 100 µM | [3] > 100 µM | [4] > 100 µM | [6] > 100 µM | [7] > 100 µM | [8] > 100 µM | [9] > 100 µM | [10] > 100 µM | [11] > 100 µM | [12] > 100 µM | [13] > 100 µM | [14] > 100 µM | [20] > 100 µM | [15] > 100 µM | [16] > 100 µM | [17] > 100 µM

Cc1cc(S(=O)(=O)Nc2nc3cc(-c4ccc(Cl)cc4)sc3c(=O)n2N)c(S)cc1Cl
inactive: [1] 36.5 µM | [2] > 100 µM | [18] > 100 µM | [19] > 100 µM | [3] 62.4 µM | [4] 43.4 µM | [6] 65 µM | [8] 73.6 µM | [9] 52.4 µM | [10] 45.9 µM | [11] 37.2 µM | [12] 63.2 µM | [13] 82.8 µM | [14] 62.2 µM | [20] 44.7 µM | [15] 64.4 µM | [16] 50.6 µM | [17] 33.3 µM

COC(=O)c1ccc2c(c1)CC1(C2)Cc2cc3c(cc2C1=O)CCC3 (centres undefined)
inactive: [1] 46.1 µM | [2] 77.4 µM | [18] 26.7 µM | [19] 19.2 µM | [3] 39.6 µM | [4] 33.7 µM | [5] 64.3 µM | [6] 18.3 µM | [8] 54.1 µM | [9] 22 µM | [10] 53 µM | [11] 57.7 µM | [12] 98.6 µM | [13] 61.2 µM | [14] 23.8 µM | [20] 20.9 µM | [15] 24.7 µM | [16] 22 µM | [17] 56.5 µM

CC(C)CCNC(=O)c1ccc(CNC(=O)/C=C/c2ccc(-c3ccccc3[N+](=O)[O-])o2)cc1
inactive: [1] 16.6 µM | [18] 94.8 µM | [19] > 100 µM | [4] 56.8 µM | [6] 47 µM | [7] 91.8 µM | [9] 28.2 µM | [10] 28.6 µM | [11] 64.9 µM | [12] > 100 µM | [14] 34.9 µM | [20] 68.5 µM | [15] 14.4 µM | [16] > 100 µM | [17] 42.7 µM

CCOC(=O)c1ccc(N(CCOS(C)(=O)=O)CCOS(C)(=O)=O)cc1
inactive: [1] > 100 µM | [2] 29.3 µM | [18] 36.6 µM | [19] 53.1 µM | [3] 12.9 µM | [4] 35.9 µM | [5] 35.2 µM | [6] > 100 µM | [8] 83.4 µM | [9] 35.7 µM | [11] 21.8 µM | [13] 58.3 µM | [14] 52.2 µM | [20] 47.3 µM | [15] 35.7 µM | [17] 51.1 µM

O=C(Nc1ccc(Cl)cc1)C(=O)C1=C(O)c2ccccc2OC1
inactive: [1] > 100 µM | [2] > 100 µM | [18] > 100 µM | [19] > 100 µM | [3] > 100 µM | [4] > 100 µM | [5] > 100 µM | [6] > 100 µM | [8] > 100 µM | [9] > 100 µM | [10] > 100 µM | [11] > 100 µM | [12] > 100 µM | [13] > 100 µM | [14] > 100 µM | [20] > 100 µM | [15] > 100 µM | [16] > 100 µM | [17] > 100 µM

CC1(N2CCOCC2)CC2C(=[N+]1[O-])CCC/C2=N/O (centres undefined)
inactive: [1] > 100 µM | [2] > 100 µM | [18] > 100 µM | [19] > 100 µM | [3] > 100 µM | [4] > 100 µM | [6] > 100 µM | [7] > 100 µM | [8] > 100 µM | [9] > 100 µM | [10] > 100 µM | [12] > 100 µM | [13] > 100 µM | [14] > 100 µM | [20] > 100 µM | [15] > 100 µM | [16] > 100 µM | [17] > 100 µM

S=C(S)N1CCN(c2ccc(Cl)c(Cl)c2)CC1
inactive: [1] 25.4 µM | [2] 23.4 µM | [18] 21.3 µM | [19] 19.7 µM | [3] 21.6 µM | [4] 26.3 µM | [5] 18 µM | [6] > 10 µM | [8] 58.6 µM | [9] 41.4 µM | [10] 28.1 µM | [11] 25.9 µM | [13] 12.9 µM | [14] 17.6 µM | [20] 25.8 µM | [16] 30.1 µM | [17] 28.7 µM

CC1C(c2ccccc2)O[B-](F)(c2ccccc2)[NH+]1C (centres undefined)
inactive: [1] > 100 µM | [18] > 100 µM | [19] > 100 µM | [4] > 100 µM | [5] > 100 µM | [6] > 100 µM | [7] > 100 µM | [8] > 100 µM | [9] > 100 µM | [10] > 100 µM | [11] > 100 µM | [12] > 100 µM | [13] > 100 µM | [14] > 100 µM | [20] > 100 µM | [15] > 100 µM | [16] > 100 µM | [17] > 100 µM

Nc1nc(N)c2cc(S(=O)(=O)c3ccc4ccccc4c3)ccc2n1
inactive: [1] > 100 µM | [2] 8.39 µM | [18] > 100 µM | [3] 3.9 µM | [4] 3.24 µM | [8] > 100 µM | [9] 70.5 µM | [10] 3.66 µM | [12] > 100 µM | [13] 8.13 µM | [14] 3.3 µM | [16] 7.69 µM | [17] 1.55 µM
active: [6] 0.142 µM
